Read-outs that look alike come from different tables or passages of the source. Marks after values point to notes of the source that are not given here.
Key:
Type in all cases: in vivo
[1] = test system: Puccinia recondita; experiment: Foliar fungal disease test on plants: Puccinia recondita (Pr)
Procedure, shortened: (§1)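 Potted plants treated by foliar spray to maximum retention (100 ppm a.i. unless stated) plus root drench (~40 ppm a.i. in dry soil), with 0.05% Tween 20 on cereals, one or two days before spore-suspension inoculation.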

[2] = test system: Erysiphe graminis tritici; experiment: Foliar fungal disease test on plants: Erysiphe graminis tritici (Egt); conditions: 100 ppm active ingredient foliar spray plus root drench (approx. 40 ppm a.i. in dry soil); plants inoculated 24 hours before treatment
Description: (§2) The compounds were tested against a variety of foliar fungal diseases of plants. The technique employed was as follows.
(§3) The plants were grown in John Innes Potting Compost (No.1 or 2) in 4 cm diameter minipots. The test compounds were formulated either by bead milling with aqueous Dispersol T or as a solution in acetone or acetone/ethanol which was diluted to the required concentration immediately before use. For the foliage diseases, the formulations (100 ppm active ingredient except where otherwise indicated) were sprayed onto the foliage and applied to the roots of the plants in the soil. The sprays were applied to maximum retention and the root drenches to a final concentration equivalent to approximately 40 ppm a.i. in dry soil. Tween 20, to give a final concentration of 0.05%, was added when the sprays were applied to cereals.
(§4) For most of the tests the compound was applied to the soil (roots) and to the foliage (by spraying) one or two days before the plant was inoculated with the disease. An exception was the test on Erysiphe graminis in which the plants were inoculated 24 hours before treatment. Foliar pathogens were applied by spray as spore suspensions onto the leaves of test plants. After inoculation, the plants were put into an appropriate environment to allow infection to proceed and then incubated until the disease was ready for assessment. The period between inoculation and assessment varied from four to fourteen days according to the disease and environment.
(§5) The disease control vas recorded by the following grading:
(§6) 3=trace-5% of disease on untreated plants
(§7) 2=6-25% of disease on untreated plants
(§8) 1=26-59% of disease on untreated plants
(§9) 0=60-100% of disease on untreated plants
Egt Erysiphe graminis tritici

[3] = test system: Septoria nodorum; experiment: Foliar fungal disease test on plants: Septoria nodorum (Sn)
Description: as §2, §3, §4, §5, §6, §7, §8, §9

[4] = test system: Pyricularia oryzae
[5] = test system: Thanatephorus cucumeris; experiment: Foliar fungal disease test on plants: Thanatephorus cucumeris (Tc)
Description: as §2, §3, §4, §5, §6, §7, §8, §9
Tc Thanatephorus cucumeris

[6] = test system: Venturia inaequalis; experiment: Foliar fungal disease test on plants: Venturia inaequalis (Vi)
Procedure, shortened: as §1

[7] = test system: Plasmopara viticola; experiment: Foliar fungal disease test on plants: Plasmopara viticola (Pv)
Procedure, shortened: as §1

[8] = test system: Phytophthora infestans lycopersici
[9] = test system: Erysiphe graminis hordei; experiment: Foliar fungal disease test on plants: Erysiphe graminis hordei (Egh)
[10] = 100 ppm active ingredient foliar spray plus root drench (approx. 40 ppm a.i. in dry soil), one or two days before inoculation
[11] = 100 ppm active ingredient foliar spray plus root drench (approx. 40 ppm a.i. in dry soil), plants inoculated 24 hours before treatment

Row | SMILES | disease control grading, Pr (Puccinia recondita) [1, 10] | disease control grading, Egt (Erysiphe graminis tritici) [2] | disease control grading, Sn (Septoria nodorum) [3, 10] | disease control grading, Po (Pyricularia oryzae) [4, 10] | disease control grading, Tc (Thanatephorus cucumeris) [5, 10] | disease control grading, Vi (Venturia inaegualis) [6, 10] | disease control grading, Pv (Plasmopara viticola) [7, 10] | disease control grading, Pil (Phytophthora infestans lycopersici) [8, 10] | disease control grading, Pr (Puccinia recondita) ([1]; 10 ppm foliar application only) | disease control grading, Egh (Erysiphe graminis hordei) ([9]; 10 ppm foliar application only) | disease control grading, Sn (Septoria nodorum) ([3]; 10 ppm foliar application only) | disease control grading, Po (Pyricularia oryzae) ([4]; 10 ppm foliar application only) | disease control grading, Tc (Thanatephorus cucumeris) ([5]; 10 ppm foliar application only) | disease control grading, Vi (Venturia inaegualis) ([6]; 10 ppm foliar application only) | disease control grading, Pv (Plasmopara viticola) ([7]; 10 ppm foliar application only) | disease control grading, Pil (Phytophthora infestans lycopersici) ([8]; 10 ppm foliar application only) | disease control grading, Egh (Erysiphe graminis hordei) [9, 11]
1 | CO/C=C(/C(=O)OC)c1ccccc1Oc1cc(OCc2cccs2)ncn1 [394 of Table I] | 4 (4=no disease) | 4 (4=no disease) | 4 (4=no disease) | 3 (3=trace-5% of disease on untreated plants) | 4 (4=no disease) | 4 (4=no disease) | 4 (4=no disease) | 4 (4=no disease) |  |  |  |  |  |  |  |  | 
2 | CO/C=C(/C(=O)OC)c1ccccc1Oc1cc(OCc2c(Cl)cccc2C(F)(F)F)ncn1 [383 of Table I] |  |  |  |  |  |  |  |  | 4^a (4=no disease) | 0^a (0=60-100% of disease on untreated plants) | 4^a (4=no disease) | 0^a (0=60-100% of disease on untreated plants) | 4^a (4=no disease) | 3^a (3=trace-5% of disease on untreated plants) | 4^a (4=no disease) | 0^a (0=60-100% of disease on untreated plants) | 
3 | CO/C=C(/C(=O)OC)c1ccccc1Oc1cc(OCC#Cc2ccccc2)ncn1 [387 of Table I] | 4 (4=no disease) |  | 4 (4=no disease) | 4 (4=no disease) | 4 (4=no disease) | 4 (4=no disease) | 4 (4=no disease) | 4 (4=no disease) |  |  |  |  |  |  |  |  | 4 (4=no disease)
4 | CO/C=C(/C(=O)OC)c1ccccc1Oc1cc(N(C=O)c2ccccc2O)ncn1 [392 of Table I] |  |  |  |  |  |  |  |  | 0^a (0=60-100% of disease on untreated plants) | 0^a (0=60-100% of disease on untreated plants) | 1^a (1=26-59% of disease on untreated plants) | 0^a (0=60-100% of disease on untreated plants) | 0^a (0=60-100% of disease on untreated plants) | 0^a (0=60-100% of disease on untreated plants) | 0^a (0=60-100% of disease on untreated plants) | 0^a (0=60-100% of disease on untreated plants) | 
5 | CO/C=C(/C(=O)OC)c1ccccc1Oc1cc(O/N=C(/N)c2cccc(C(F)(F)F)c2)ncn1 [406 of Table I] | 0 (0=60-100% of disease on untreated plants) | 1 (1=26-59% of disease on untreated plants) | 0 (0=60-100% of disease on untreated plants) | 0 (0=60-100% of disease on untreated plants) | 0 (0=60-100% of disease on untreated plants) | 1 (1=26-59% of disease on untreated plants) | 4 (4=no disease) | 0 (0=60-100% of disease on untreated plants) |  |  |  |  |  |  |  |  | 
6 | CO/C=C(/C(=O)OC)c1ccccc1Oc1cc(OCc2c(F)cccc2Cl)ncn1 [386 of Table I] | 4 (4=no disease) |  | 4 (4=no disease) | 4 (4=no disease) | 4 (4=no disease) | 4 (4=no disease) | 4 (4=no disease) | 4 (4=no disease) |  |  |  |  |  |  |  |  | 4 (4=no disease)
7 | CO/C=C(/C(=O)OC)c1ccccc1Oc1cc(OCCSc2ccccc2)ncn1 [391 of Table I] | 4 (4=no disease) |  | 4 (4=no disease) | 3 (3=trace-5% of disease on untreated plants) | 4 (4=no disease) | 4 (4=no disease) | 4 (4=no disease) | 4 (4=no disease) |  |  |  |  |  |  |  |  | 4 (4=no disease)

Source: patent US6777412B2 (priority 1990, dated 2004)
